Experimental data as given in patent US20240076440A1, “PROCESS OF FORMING A CONJUGATED POLYMER” (Sumitomo Chemical Co., ltd., priority 2019, published 2024).

Test: Solubilities of Monomers 1 and 2 in toluene, MeOH and water
Format: physicochemical

Solubility in Toluene (Conc 0.1 mg/ml)	Solubility in Toluene (Conc 1 mg/ml)	Solubility in Water (Conc 1 mg/ml)	Solubility in MeOH (Conc 50 mg/ml)	Solubility in Water (Conc 50 mg/ml)	Solubility in MeOH (Conc 0.1 mg/ml)	Solubility in MeOH (Conc 1 mg/ml)	Solubility in MeOH (Conc 75 mg/ml)	Solubility in Toluene (Conc 75 mg/ml)	Solubility in Toluene (Conc 1 g/ml)	Solubility in Toluene (Conc 2 g/ml)	Structure (SMILES)
Insoluble	Insoluble	Soluble	Soluble	Insoluble	–	–	–	–	–	–	C[N+](C)(C)CCC1(CC[N+](C)(C)C)c2cc(Br)ccc2-c2ccc(Br)cc21 [Monomer 2]
Soluble	Soluble	Insoluble	Soluble	–	Soluble	Soluble	Not Soluble	soluble	Soluble	Soluble	CCCCCCCCC1(CCCCCCCC)c2cc(B3OCCO3)ccc2-c2ccc(B3OCCO3)cc21 [Monomer 1]
